According to patent US20040219103A1, “Methods useful for the diagnosis, imaging and treatment of tumors” (priority 2003, published 2004):

Tests used:
[1] = test system: JJ5 breast cancer cells; assay: Growth inhibition assay against JJ5 breast cancer cells; format: cell-based, human; settings: 4 days culture
Method: Growth medium was added and the cells were cultured at 37° C./5% CO^2 for 4 days. The cells were then recovered by trypsinization and counted in a hemocytometer. Control dishes contained cells cultured in growth medium containing ^111In-DTPA or growth medium alone.

[2] = test system: JJ5 Breast Cancer cells (EGFR); assay: Binding of EGF-^111In-labeled transferrin compound to breast cancer cells (radioligand binding, kinetics, retention); parameters: species or system human
Method: For the normal breast cell line HBL-100, 8000 EGFR/cell has been reported. The expression of EGFR in breast cancer cell lines has a reported range of 800 EGFR/cell for MCF-7 cells to 10^6 EGFR/cell for MDA-MB-468 cells. […] Utilizing the Auger electron emitter ^111In was used in the initial experiments to illustrate the utility of the invention using EGF-^111In-labeled transferrin compounds. The EGF-^111In-labeled transferrin (0.25-80 ng) was incubated with 1.5×10^6 cells/dish JJ5 Breast Cancer (prepared from BCBM JJ5) cells in 1 mL of 0.1% human serum albumin in 35 mm multiwell culture dishes at 37° C. for 30 minutes. The cells were transferred to a centrifuge tube and centrifuged. The cell pellet was separated from the supernatant and counted in a g-scintillation counter to determine bound (B) and free (F) radioactivity. Non-specific binding was determined by conducting the assay in 100 nM hEGF. […] Internalized fraction was measured by determining the proportion of radioactivity which could not be displaced from the cell surface by 100 nM hEGF. Cell-associated binding (surface-binding and intracellular accumulation) was expressed as a percentage of medium radioactivity bound per mg of cell study protein.

[3] = test system: JJ5 breast cancer cells; assay: Cytotoxicity (colony-forming) assay against JJ5 breast cancer cells; format: cell-based, human; settings: 14 days
Method: The number of cells seeded was varied from 3×10^4 to 3×10^6 cells to obtain approximately 400 viable colonies/dish taking into account the plating efficiency and the expected level of cytotoxicity. Control dishes contained JJ5 breast cancer cells which were incubated with normal saline. Growth medium was added and the cells were cultured at 37° C./5% CO^2 for 14 days. The growth medium was removed and the colonies were stained with methylene blue (1% in a 1:1 mixture of ethanol and water) then washed twice. The number of colonies per dish was counted using a manual colony counter (Manostat Corp). The plating efficiency was calculated by dividing the number of colonies observed by the number of cells seeded in each dish.

| Compound | growth inhibition of the JJ5 cells compared to the medium control ([1]; 3.4 pCi/cell) [%] | internalization by cancer cells (in words) ([2]; JJ5 cells) | number of binding sites ([2]; JJ5 cells) | binding by the breast cancer cells (kinetics, in words) ([2]; JJ5 cells, 37° C.) | time retained by the breast cancer cells ([2]; JJ5 cells, 37° C.) | affinity constant for binding to JJ5 cells ([2]; JJ5 cells, 37° C., 30 minutes) [L/mol] | ^111In radioactivity lost from the cells in vitro ([2]; over a 24 hour period at 37° C.) [%] | reduction in cell survival for JJ5 cells ([3]; 8 pCi/cell) [%] | growth inhibition of the JJ5 cells compared to the medium control ([1]; 3.5 pCi/cell) [%] | cell killing ([3]; <6 pCi/cell) |
| --- | --- | --- | --- | --- | --- | --- | --- | --- | --- | --- |
| EGF-^111In-labeled transferrin compound: human EGF linked via PEG3400-biotin or peptide linker-biotin to streptavidin-transferrin, transferrin labeled with ^111In | 83 | rapidly internalized | 2.7×10^6 | rapidly bound | at least 24 hours | 8e+08 | < 8 | 99 |  |  |
| [In+3].[O-]c1cccc2cccnc12.[O-]c1cccc2cccnc12.[O-]c1cccc2cccnc12 [^111In-oxine, reference compound] |  |  |  |  |  |  |  |  | 91 | greater than 99% |
